Reference: patent US10260079B2, “Method for producing ergothioneine by using soybean cake powder as nitrogen source in a seed medium” (TIANJIN INSTITUTE OF INDUSTRIAL BIOTECHNOLOGY, CHINESE …, priority 2014, dated 2019)
“And” between values parts separate entries of the source, which are not always exact repeats. Identical values can stand only once. Like-named read-outs stand apart in the source and are kept apart here.

Columns and labels:
[1] = system: Pleurotus ostreatus mycelia CGMCC No. 6232; experiment: Shake-flask fermentation, content of extracellular ergothioneine in the filtrate by HPLC
Description: Seed medium: corn flour 30 g/L, soybean meal powder 15 g/L, α-amylase 80 U/L, KH2PO4 3 g/L, MgSO4.7H2O 1.5 g/L, and a balance of water. The seed medium was sterilized at 121° C. for 20 min, and the liquid volume in a 500 mL triangular flask was 150 mL. […] A lawn of the strain CGMCC No. 6232 was picked from the PDA slant and inoculated into the seed medium, cultured on a shaker at 150 rpm at 25° C. for 4 days, to obtain a seed liquor. […] The obtained permeate was the test sample for detection of the content of extracellular ergothioneine in the filtrate. […] The solutions were filtered with 0.22 μm millipore filter to obtain the reference solutions. Qualitative and quantitative detection: L-ergothioneine reference solutions and the test samples were detected by HPLC under the same chromatographic conditions. The chromatograms of the test samples were compared with those of the L-ergothioneine reference solutions, and the chromatographic peak of L-ergothioneine in the test sample was identified based on the retention time. A standard curve was plotted with the concentrations of L-ergothioneine reference solutions and the corresponding peak areas. In the case that the sample load of the reference solution was identical with that of the test sample, an external standard method was used for quantification so as to calculate the content of ergothioneine in the test sample. The concentration of ergothioneine in the test sample was the concentration of ergothioneine in the fermentation broth. Detection conditions: the chromatographic column was Agilent Eclipse XDB-C18 (4.6×250 mm, 5 μm), with two chromatographic columns in series; the mobile phase was 1% methanol solution, the pH of which was adjusted to 5.0 using acetic acid-sodium acetate buffer; the detection wavelength was 257 nm; the flow rate was 0.7 mL/min; the column temperature was 25° C.; and the sample load was 5 μL. […] Pleurotus ostreatus mycelia CGMCC No. 6232 were subjected to fermentation and culture.

[2] = system: Pleurotus ostreatus mycelia CGMCC No. 6232; experiment: Shake-flask fermentation, total content of ergothioneine in the fermentation broth by HPLC; assay type: cell-based

CC(C)O [isopropyl alcohol]
content of extracellular ergothioneine in the filtrate ([1]; isopropyl alcohol 2% (V/V) (highest)): 10.04 mg/L

Clc1ccc(COC(Cn2ccnc2)c2ccc(Cl)cc2Cl)c(Cl)c1 (stereo not drawn) [Miconazole, reference compound]
content of extracellular ergothioneine in the filtrate ([1]; Miconazole 50 mg/L (highest)): 9.14 mg/L
Content of ergothioneine in fermentation broth ([2]; Miconazole 0.5 mg/L added in fermentation medium): 132.4 ± 2.96 mg/L
Content of ergothioneine in fermentation broth ([2]; Miconazole 1 mg/L added in fermentation medium): 140.0 ± 3.28 mg/L
Content of ergothioneine in fermentation broth ([2]; Miconazole 5 mg/L added in fermentation medium): 152.9 mg/L and 152.9 ± 4.22 mg/L
Content of ergothioneine in fermentation broth ([2]; Miconazole 10 mg/L added in fermentation medium): 147.0 ± 3.09 mg/L
Content of ergothioneine in fermentation broth ([2]; Miconazole 15 mg/L added in fermentation medium): 129.8 ± 2.11 mg/L
activation at 5 µg/mL ([2]; Pleurotus ostreatus, CGMCC6232, 360 h, Miconazole 5 mg/L, read-out: content of ergothioneine improved compared with control group): 24.9%

CCCCCCCC/C=C\CCCCCCCC(=O)OCCOCC(OCCO)C1OCC(OCCO)C1OCCO (stereo not drawn) [tween 80]
content of extracellular ergothioneine in the filtrate ([1]; tween 80 10 g/L (highest)): 18.72 mg/L
activation at 10000 µg/mL ([2]; Pleurotus ostreatus, CGMCC6232, 360 h, tween 80 10 g/L, read-out: content of ergothioneine improved compared with control group): 78.5%
Content of ergothioneine in fermentation broth ([2]; tween 80 0.5 g/L added in fermentation medium): 130.2 ± 1.56 mg/L
Content of ergothioneine in fermentation broth ([2]; tween 80 2 g/L added in fermentation medium): 155.9 ± 2.7 mg/L
Content of ergothioneine in fermentation broth ([2]; tween 80 5 g/L added in fermentation medium): 181.8 ± 3.95 mg/L
Content of ergothioneine in fermentation broth ([2]; tween 80 10 g/L added in fermentation medium): 217 mg/L and 217 ± 4.37 mg/L
Content of ergothioneine in fermentation broth ([2]; tween 80 20 g/L added in fermentation medium): 170.9 ± 4.43 mg/L
Content of ergothioneine in fermentation broth ([2]; tween 80 40 g/L added in fermentation medium): 130.9 ± 1.61 mg/L

C[S+](C)[O-] [dimethyl sulfoxide]
content of extracellular ergothioneine in the filtrate ([1]; dimethyl sulfoxide 2% (V/V) (highest)): 10.18 mg/L

CC(=O)N1CCN(c2ccc(OCC3COC(Cn4ccnc4)(c4ccc(Cl)cc4Cl)O3)cc2)CC1 (stereo not drawn) [Ketoconazole, reference compound]
content of extracellular ergothioneine in the filtrate ([1]; Ketoconazole 50 mg/L (highest)): 5.77 mg/L
Content of ergothioneine in fermentation broth ([2]; Ketoconazole 0.5 mg/L added in fermentation medium): 127.6 ± 1.06 mg/L
Content of ergothioneine in fermentation broth ([2]; Ketoconazole 1 mg/L added in fermentation medium): 130.7 ± 2.22 mg/L
Content of ergothioneine in fermentation broth ([2]; Ketoconazole 5 mg/L added in fermentation medium): 134.1 mg/L and 134.1 ± 2.99 mg/L
Content of ergothioneine in fermentation broth ([2]; Ketoconazole 10 mg/L added in fermentation medium): 132.5 ± 1.87 mg/L
Content of ergothioneine in fermentation broth ([2]; Ketoconazole 50 mg/L added in fermentation medium): 128.9 ± 1.18 mg/L
activation at 5 µg/mL ([2]; Pleurotus ostreatus, CGMCC6232, 360 h, Ketoconazole 5 mg/L, read-out: content of ergothioneine improved compared with control group): 9.6%

OC(Cn1cncn1)(Cn1cncn1)c1ccc(F)cc1F [Fluconazole, reference compound]
content of extracellular ergothioneine in the filtrate ([1]; Fluconazole 50 mg/L (highest)): 7.67 mg/L
Content of ergothioneine in fermentation broth ([2]; Fluconazole 2 mg/L added in fermentation medium): 131.6 ± 1.92 mg/L
Content of ergothioneine in fermentation broth ([2]; Fluconazole 5 mg/L added in fermentation medium): 137.2 ± 2.51 mg/L
Content of ergothioneine in fermentation broth ([2]; Fluconazole 20 mg/L added in fermentation medium): 141.3 ± 3.27 mg/L
Content of ergothioneine in fermentation broth ([2]; Fluconazole 50 mg/L added in fermentation medium): 146.4 mg/L and 146.4 ± 3.41 mg/L
Content of ergothioneine in fermentation broth ([2]; Fluconazole 80 mg/L added in fermentation medium): 132.7 ± 3.39 mg/L
activation at 50 µg/mL ([2]; Pleurotus ostreatus, CGMCC6232, 360 h, Fluconazole 50 mg/L, read-out: content of ergothioneine improved compared with control group): 19.6%

tween 60
content of extracellular ergothioneine in the filtrate ([1]; tween 60 5 g/L (highest)): 16.24 mg/L
Content of ergothioneine in fermentation broth ([2]; tween 60 2 g/L added in fermentation medium): 128.8 ± 1.51 mg/L
Content of ergothioneine in fermentation broth ([2]; tween 60 5 g/L added in fermentation medium): 173.6 ± 2.98 mg/L
content of ergothioneine improved compared with control group ([2]; tween 60 10 g/L): 74.9%
Content of ergothioneine in fermentation broth ([2]; tween 60 10 g/L added in fermentation medium): 212.7 mg/L and 212.7 ± 4.52 mg/L
Content of ergothioneine in fermentation broth ([2]; tween 60 20 g/L added in fermentation medium): 184.4 ± 3.78 mg/L
Content of ergothioneine in fermentation broth ([2]; tween 60 40 g/L added in fermentation medium): 154.2 ± 2.63 mg/L
Content of ergothioneine in fermentation broth ([2]; tween 60 50 g/L added in fermentation medium): 129.1 ± 2.1 mg/L

CSCC[C@H](N)C(=O)O [methionine]
activation at 15000 µM ([2]; Pleurotus ostreatus, CGMCC6232, 360 h, methionine 15 mmol/L added on the 4th day, read-out: content of ergothioneine improved compared with control group): 63.1%
activation at 15000 µM ([2]; Pleurotus ostreatus, CGMCC6232, 360 h, methionine 15 mmol/L, read-out: content of ergothioneine improved compared with control group): 49.4%
Content of ergothioneine in fermentation broth ([2]; methionine 3 mmol/L added in fermentation medium): 127.3 ± 3.47 mg/L
Content of ergothioneine in fermentation broth ([2]; methionine 9 mmol/L added in fermentation medium): 154.8 ± 3.31 mg/L
Content of ergothioneine in fermentation broth ([2]; methionine 15 mmol/L added in fermentation medium): 179.6 mg/L and 179.6 ± 4.17 mg/L
Content of ergothioneine in fermentation broth ([2]; methionine 15 mmol/L, timing for adding 0 d (before the fermentation)): 179.3 ± 4.23 mg/L
Content of ergothioneine in fermentation broth ([2]; methionine 15 mmol/L, timing for adding 2 d): 190.5 ± 2.84 mg/L
Content of ergothioneine in fermentation broth ([2]; methionine 15 mmol/L, timing for adding 4 d): 202.6 mg/L and 202.6 ± 5.01 mg/L
Content of ergothioneine in fermentation broth ([2]; methionine 15 mmol/L, timing for adding 6 d): 174.9 ± 3.73 mg/L
Content of ergothioneine in fermentation broth ([2]; methionine 15 mmol/L, timing for adding 8 d): 160.3 ± 5.29 mg/L
Content of ergothioneine in fermentation broth ([2]; methionine 15 mmol/L, timing for adding 10 d): 149.3 ± 3.27 mg/L
Content of ergothioneine in fermentation broth ([2]; methionine 25 mmol/L added in fermentation medium): 168.5 ± 4.53 mg/L
Content of ergothioneine in fermentation broth ([2]; methionine 35 mmol/L added in fermentation medium): 153.7 ± 3.2 mg/L
Content of ergothioneine in fermentation broth ([2]; methionine 45 mmol/L added in fermentation medium): 126.9 ± 2.81 mg/L

CC(C)C[C@H](N)C(=O)O [leucine]
activation at 100 µg/mL ([2]; Pleurotus ostreatus, CGMCC6232, 360 h, leucine 0.1 g/L, read-out: content of ergothioneine improved compared with control group): 11.9%
Content of ergothioneine in fermentation broth ([2]; leucine 0.02 g/L added in fermentation medium): 127 ± 1.23 mg/L
Content of ergothioneine in fermentation broth ([2]; leucine 0.05 g/L added in fermentation medium): 129.4 ± 2.17 mg/L
Content of ergothioneine in fermentation broth ([2]; leucine 0.1 g/L added in fermentation medium): 133.3 mg/L and 133.3 ± 2.5 mg/L
Content of ergothioneine in fermentation broth ([2]; leucine 0.25 g/L added in fermentation medium): 130.8 ± 2.46 mg/L
Content of ergothioneine in fermentation broth ([2]; leucine 0.5 g/L added in fermentation medium): 125.5 ± 1.36 mg/L

O=C(O)CN(CCN(CC(=O)O)CC(=O)O)CC(=O)O [EDTA, ethylenediaminetetraacetic acid]
content of extracellular ergothioneine in the filtrate ([1]; EDTA 0.5 g/L (highest)): 9.28 mg/L
